≈ marks a conversion by molar mass, not a printed value.

Broadly, the MIC is the lowest concentration found to suppress growth. What is called IC50 is the point on the concentration scale where inhibition reaches its midpoint. By melting point is commonly meant the temperature, or range, at which the solid turns liquid. What is called inhibition is the share of the control response that was lost under treatment.

The subject of one series is C. albicans CA98001. Briefly: Anti-Candida in vitro assay (Alamar Blue), C. albicans CA98001. It is filed as cell-based. Conditions: Candida albicans, CA98001, 24 h, MIC = IC80, 24 h at 37 °C, mean of triplicate. As to the method:
(§1) Test fungal strains were obtained from the American Type Culture Collection (ATCC) or were clinical isolates from the Laboratory of Parasitology and Medical Mycology, Centre Hospitalier Universitaire (CHU) of Nantes. The strains were maintained on Sabouraud agar slants and were subcultured 24 h before used. The activity of the target compounds 8a–g and 11a–m was determined by the method previously described. Briefly, molecules were diluted in RPMI 1640 medium supplemented with 0.165 M morpholinopropanesulphonic acid (Sigma-Aldrich, Saint-Quentin Fallavier, France), 2% glucose, and antibiotics. Candida suspensions were prepared in RPMI 1640 medium (Sigma-Aldrich, Saint-Quentin Fallavier, France) adjusted to give a final concentration of 10^3 cells/mL, and a 96-well microplate (Nunc, D. Dutscher, Brumath, France) was seeded with 100 µL. Each concentration of molecules (100 µL) to be tested was added (in triplicate) and plates were incubated at 37 °C for 24 h. The cellular viability was evaluated on the Fluorolite 1000 (Dynatech, France) with an excitation at 550 nm and an emission at 590 nm after a 4 h incubation with 10 µL of Alamar Blue®. […] MIC was expressed as the mean of the triplicate values. KTC and FLC were used as standards.

In series [1] the test system is ATCC2091 Candida albicans strain. Briefly: Anti-Candida in vitro assay, ATCC2091. The format is cell-based. Particulars: Candida albicans ATCC2091, mean of triplicate; read-out: MIC (IC80) ATCC2091. The protocol: as §1
In series [2] the test system is CA98002 (Candida albicans). Briefly: Anti-Candida in vitro assay, CA98002. Conditions: Candida albicans CA98002, mean of triplicate; read-out: MIC (IC80) CA98002. The format is cell-based. The protocol: as §1
Series [3] deals with CA98005 (Candida albicans). Briefly: Anti-Candida in vitro assay, CA98005. It is filed as cell-based. Conditions: Candida albicans CA98005, mean of triplicate; read-out: MIC (IC80) CA98005. As to the method:
as §1

Series [4] deals with ATCC6258 Candida krusei strain. Briefly: Anti-Candida in vitro assay, ATCC6258. The format is cell-based. Conditions: Pichia kudriavzevii; Candida krusei ATCC6258, mean of triplicate; read-out: MIC (IC80) ATCC6258. As to the method:
as §1

The subject of another series is CK98002 (Candida krusei). Briefly: Anti-Candida in vitro assay, CK98002. The format is cell-based. Conditions: Pichia kudriavzevii; Candida krusei CK98002, mean of triplicate; read-out: MIC (IC80) CK98002. The protocol:
as §1

Another series has as its system CK98003 (Candida krusei). Briefly: Anti-Candida in vitro assay, CK98003. It is filed as cell-based. Conditions: Pichia kudriavzevii; Candida krusei CK98003, mean of triplicate; read-out: MIC (IC80) CK98003. The protocol:
as §1

Series [5] deals with CL98001 (Candida lusitaniae). Briefly: Anti-Candida in vitro assay, CL98001. The format is cell-based. Particulars: Clavispora lusitaniae; Candida lusitaniae CL98001, mean of triplicate; read-out: MIC (IC80) CL98001. The protocol: as §1
The subject of series [6] is ATCC90018 Candida parapsilosis strain. Briefly: Anti-Candida in vitro assay, ATCC90018. It is filed as cell-based. Particulars: Lodderomyces parapsilosis; Candida parapsilosis ATCC90018, mean of triplicate; read-out: MIC (IC80) ATCC90018. As to the method: as §1
Another series in a line: MRC5 toxicity assay. The format is cell-based, human. Particulars: human, MRC-5 human fetal lung fibroblast cells, MRC-5 cells, 96-h incubation, mean of triplicate; read-out: Cytotoxicity IC50 on MRC-5 cells. The protocol: (§2) The cytotoxicity of compounds was studied with human fibroblast (MRC5). Cells were grown in RPMI 1640 medium (Sigma-Aldrich, Saint-Quentin Fallavier, France) supplemented with 10% fetal bovin serum (Sigma–Aldrich). Drugs were tested at three concentrations (100, 10, and 1 µM) in triplicate. After a 96-h incubation time, cytotoxicity was measured on the Fluorolite 1000 (Dynatech, Guyancourt, France) after a 4-h incubation time with Uptiblue® (Interchim, Montluçon, France). Inhibitory concentration 50 is a mean of triplicate values. A toxicity index was determined as follow: IC50 against MRC5/Geometric mean of the MICs against Candida spp..

Series [7] relates to human fetal lung fibroblast (MRC-5) cells. Briefly: MRC5 toxicity assay. The format is cell-based. Conditions: 96-h incubation, mean of triplicate, read-out: Cytotoxicity IC50 on MRC-5 cells. As to the method:
as §2

The next series has as its target T1, aromatase (CYP19) (Homo sapiens, UniProt P11511).
T1 construct: Microsomal protein (0.1 mg) was added to start the reaction; from tissue; host or cells: microsomes; ('human placental microsomes')
T1 sequence (P11511 1-503): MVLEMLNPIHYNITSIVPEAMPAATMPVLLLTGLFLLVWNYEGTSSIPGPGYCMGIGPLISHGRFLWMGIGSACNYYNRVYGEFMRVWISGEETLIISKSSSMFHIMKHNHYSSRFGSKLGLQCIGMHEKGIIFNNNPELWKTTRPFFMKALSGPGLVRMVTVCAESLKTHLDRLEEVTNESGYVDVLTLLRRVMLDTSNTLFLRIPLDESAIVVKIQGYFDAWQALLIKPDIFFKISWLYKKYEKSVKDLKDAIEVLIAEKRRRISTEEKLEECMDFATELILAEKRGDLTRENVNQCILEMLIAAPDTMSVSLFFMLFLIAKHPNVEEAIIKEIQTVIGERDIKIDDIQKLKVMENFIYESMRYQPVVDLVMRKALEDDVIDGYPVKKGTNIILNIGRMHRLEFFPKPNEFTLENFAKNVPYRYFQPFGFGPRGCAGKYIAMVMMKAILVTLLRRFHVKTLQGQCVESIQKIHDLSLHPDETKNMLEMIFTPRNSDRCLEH
Briefly: In vitro inhibition of aromatase. It is filed as biochemical.

Series [8] deals with T2, 17α-hydroxylase/17,20-lyase (CYP17) (Homo sapiens, UniProt P05093).
T2 sequence (P05093 1-508): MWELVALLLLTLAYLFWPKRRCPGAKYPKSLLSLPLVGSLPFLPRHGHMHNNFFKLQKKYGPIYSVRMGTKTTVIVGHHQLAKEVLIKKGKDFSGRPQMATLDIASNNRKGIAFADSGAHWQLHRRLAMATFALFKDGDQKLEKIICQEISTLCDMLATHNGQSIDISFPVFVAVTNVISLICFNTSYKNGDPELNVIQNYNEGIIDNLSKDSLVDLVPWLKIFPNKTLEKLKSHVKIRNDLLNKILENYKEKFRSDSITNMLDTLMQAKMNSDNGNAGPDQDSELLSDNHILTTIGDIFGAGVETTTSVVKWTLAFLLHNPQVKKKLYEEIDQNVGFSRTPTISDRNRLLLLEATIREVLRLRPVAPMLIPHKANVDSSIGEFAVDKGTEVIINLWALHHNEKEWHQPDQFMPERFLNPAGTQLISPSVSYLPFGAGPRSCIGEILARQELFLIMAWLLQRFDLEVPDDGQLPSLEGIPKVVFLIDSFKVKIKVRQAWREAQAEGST
Briefly: In vitro inhibition of 17α-hydroxylase/17,20-lyase. It is filed as biochemical. Particulars: mean of two experiments in duplicate.
Description: The assay was performed similar to described methods [29, 52]. […] Microsomal protein was added to start the reaction. […] After the addition of 1 mL EtOAc, the vials were shaken then centrifuged. The organic phase was removed, vortexed with phosphate buffer (250 µL), 1 M aqueous HCl (50 µL), and then dried. Aliquots of 25 µL methanol, containing 250 pmol of fluorocortisol acetate as internal standard, were added to the extracts. The samples (20 µL) were submitted to HPLC (RP-8 column, methanol/water 1:1, v/v) and measured using UV (240 nm).

Description for aromatase (CYP19): The assay was performed according to previously described methods [49, 50, 51] by monitoring the enzyme activity by measuring the ^3H2O formed from [1β-^3H]androstenedione during aromatization. […] Microsomal protein (0.1 mg) was added to start the reaction. After incubation of 15 min at 30 °C, the reaction was stopped by adding 200 µL of a cold HgCl2 solution (1 mM). After the addition of 200 µL of an aqueous dextran-coated charcoal (DCC) suspension (2%), the vials were shaken then centrifuged to separate the charcoal-absorbed steroids. Aliquots of the supernatant were assayed for ^3H2O by counting in a scintillation mixture using a LKB-Wallac β-counter.

Regarding `Cc1c(C)n(CC(O)(Cn2cncn2)c2ccc(Cl)cc2Cl)c2ccccc12` (centres unmarked) [Compound 11k, 2-(2,4-Dichlorophenyl)-3-(2,3-dimethyl-1H-indol-1-yl)-1-(1H-1,2,4-triazol-1-yl)propan-2-ol], the melting point lay in the range of 123 to 124 °C. The compound also showed a minimum inhibitory concentration (MIC) with C. albicans CA98001 of 1.25 µg/mL (≈ 3 µM). The MIC in [1] worked out at 2.74 µg/mL (≈ 6.6 µM). For the same compound, in series [2], the MIC amounted to 1.12 µg/mL (≈ 2.7 µM). For the same compound, the MIC in series [3] was 2.99 µg/mL (≈ 7.2 µM). Moreover, the MIC in series [4] was 25.3 µg/mL (≈ 60.9 µM). Moreover, the MIC with CK98002 (Candida krusei) turned out to be 20.2 µg/mL (≈ 48.7 µM). Further, in the series with CK98003 (Candida krusei), the minimum inhibitory concentration (MIC) was more than 41.5 µg/mL. Moreover, the MIC in [5] was 2.87 µg/mL (≈ 6.9 µM). In addition, the MIC in series [6] amounted to 9.76 µg/mL (≈ 23.5 µM). Moreover, the IC50 at 96 h in the series “MRC5 toxicity assay” was approximately 97 µM. Further, in series [7], the concentration for half-maximal inhibition (IC50) turned out to be 97.3 µM.

In the case of `OC(Cn1cncn1)(Cn1ccc2ccccc21)c1ccc(F)cc1F` (centres unmarked) [Compound 11d, 2-(2,4-Difluorophenyl)-3-(1H-indol-1-yl)-1-(1H-1,2,4-triazol-1-yl)-propan-2-ol], the melting point is 119 to 120 °C. For the same compound, the MIC against C. albicans CA98001 amounted to 0.0198 µg/mL (≈ 0.0559 µM). The MIC in series [1] stood at 0.021 µg/mL (≈ 0.0593 µM). In addition, the MIC in series [2] was determined as 0.026 µg/mL (≈ 0.0734 µM). Also, the minimum inhibitory concentration (MIC) in series [3] stood at 0.064 µg/mL (≈ 0.181 µM). In addition, in [4], the MIC turned out to be 2.18 µg/mL (≈ 6.15 µM). Further, the MIC with CK98002 (Candida krusei) is 1.55 µg/mL (≈ 4.37 µM). In addition, the minimal inhibitory concentration (MIC) in the series with CK98003 (Candida krusei) came to 24.1 µg/mL (≈ 67.9 µM). Besides, the minimal inhibitory concentration (MIC) in [5] was 0.021 µg/mL (≈ 0.0593 µM). Also, in [6], the MIC stood at 0.201 µg/mL (≈ 0.567 µM). The IC50 at 96 h in the series “MRC5 toxicity assay” was more than 100 µM. For the same compound, the half-inhibitory concentration (IC50) in [7] is approximately 197 µM. Also, on aromatase (CYP19) (at 36 µM), testing at 36 µM gave an inhibition of 89%. The IC50 on aromatase (CYP19) (mean of at least two experiments in duplicate) came out at 3.58 µM.

In series [8], `COc1ccc2c(c1)CCC(Cc1cnc[nH]1)=C2C` [BW19, 4-(6-methoxy-1-methyl-3,4-dihydro-naphthalen-2-ylmethyl)-1H-imidazole, reference compound] displayed an IC50 of 0.15 µM.

Turning to `Cc1cn(CC(O)(Cn2cncn2)c2ccc(Cl)cc2Cl)c2ccccc12` (centres unmarked) [Compound 11i, 2-(2,4-Dichlorophenyl)-3-(3-methyl-1H-indol-1-yl)-1-(1H-1,2,4-triazol-1-yl)propan-2-ol], the melting point fell in the range of 161 to 162 °C. In addition, in the series on C. albicans CA98001, the MIC worked out at 0.007 µg/mL (≈ 0.0174 µM). Also, in series [1], the MIC was found to be 0.026 µg/mL (≈ 0.0648 µM). Besides, in [2], the MIC is 0.044 µg/mL (≈ 0.11 µM). Besides, the MIC in series [3] was 0.03 µg/mL (≈ 0.0748 µM). In addition, the MIC in [4] worked out at 3.01 µg/mL (≈ 7.5 µM). Besides, the minimum inhibitory concentration (MIC) with CK98002 (Candida krusei) turned out to be 0.803 µg/mL (≈ 2 µM). For the same compound, the MIC in the series with CK98003 (Candida krusei) was 1.69 µg/mL (≈ 4.2 µM). The MIC in series [5] was 0.025 µg/mL (≈ 0.0623 µM). Further, in series [6], the MIC was determined as 0.245 µg/mL (≈ 0.611 µM). Further, the IC50 at 96 h in “MRC5 toxicity assay” stood at 19 µM.

For the origin of these results see paper PMC7464559, “Synthesis, Optimization, Antifungal Activity, Selectivity, and CYP51 Binding of New 2-Aryl-3-azolyl-1-indolyl-propan-2-ols” (Pharmaceuticals, 2020).
